In experiment [1] the target is T1, human GABA A α2β3γ2 (Homo sapiens, UniProt P18507+P47869). The experiment can be described thus: [3H]flumazenil competition binding, HEK293 cells expressing human α2β3γ2. More on the design: expressed in transfected cells; host or cells: HEK293. As to conditions: for Ki: [3H]flumazenil competition, human α2β3γ2, read-out: hKi α2; for hKi α2/hKi α5: binding selectivity ratio.

Experiment [2] concerns the target T1, human GABA A α2β3γ2. The experiment can be described thus: Two-microelectrode voltage clamp, modulation of GABA EC10 response in Xenopus oocytes, α2β3γ2. The experiment is classed as cell-based. Also noted: expressed in transfected cells; host or cells: Xenopus laevis oocytes. As to conditions: % change of EC10 GABA response at 3 μM or at 30×Ki if Ki below 0.1 μM. The procedure: (§1) Table 2b. […] Effect at human GABA A α5 receptors: % change of a submaximal (EC10) response to GABA determined at 30×Ki value from the flumazenil binding assay.
(§2) Subtype-selective effects were determined on cloned receptors expressed in Xenopus oocytes. Human recombinant GABA A receptors were expressed in Xenopus laevis oocytes. Current responses were evoked in two-microelectrode voltage-clamp condition by applying an EC10 of GABA before and during the co-application of the test compound. Response amplitudes in the presence of the test compound are expressed as percentage of the amplitudes before drug addition.

In experiment [3] the target is T2, human GABA A α5β3γ2 (Homo sapiens, UniProt P18507+P31644). The experiment can be described thus: [3H]flumazenil competition binding, HEK293 cells expressing human α5β3γ2. More on the design: expressed in transfected cells; host or cells: HEK293.
Experiment [4] addresses T3, human GABA A α1β2/3γ2 (Homo sapiens, UniProt P14867+P18507). The experiment can be described thus: Two-microelectrode voltage clamp, modulation of GABA EC10 response in Xenopus oocytes, α1β2/3γ2. It counts as cell-based. More on the design: expressed in transfected cells; host or cells: Xenopus laevis oocytes. As to conditions: % change of EC10 GABA response at 3 μM or at 30×Ki if Ki below 0.1 μM.

The target in experiment [5] is T3, human GABA A α1β2/3γ2. The experiment can be described thus: [3H]flumazenil competition binding, HEK293 cells expressing human α1β2/3γ2. Also noted: expressed in transfected cells; host or cells: HEK293. As to conditions: for Ki: [3H]flumazenil competition, human α1β2/3γ2, read-out: hKi α1; for hKi α1/hKi α5: binding selectivity ratio.
For experiment [6], the target named is T4, human GABA A α3β3γ2 (Homo sapiens, UniProt P18507+P34903). The experiment can be described thus: Two-microelectrode voltage clamp, modulation of GABA EC10 response in Xenopus oocytes, α3β3γ2. The experiment is classed as cell-based. Also noted: expressed in transfected cells; host or cells: Xenopus laevis oocytes. As to conditions: % change of EC10 GABA response at 3 μM or at 30×Ki if Ki below 0.1 μM. As to the method:
as §1, §2

Experiment [7] concerns the target T4, human GABA A α3β3γ2. The experiment can be described thus: [3H]flumazenil competition binding, HEK293 cells expressing human α3β3γ2. As to conditions: for Ki: [3H]flumazenil competition, human α3β3γ2, read-out: hKi α3; for hKi α3/hKi α5: binding selectivity ratio. More on the design: expressed in transfected cells; host or cells: HEK293.
In experiment [8] the target is T2, human GABA A α5β3γ2. The experiment can be described thus: Two-microelectrode voltage clamp, modulation of GABA EC10 response in Xenopus oocytes, α5β3γ2. The experiment is classed as cell-based. Also noted: expressed in transfected cells; host or cells: Xenopus laevis oocytes. As to conditions: % change of submaximal (EC10) response to GABA at 30×Ki. As to the method: as §1, §2

The mark [9] stands for this setting: [3H]flumazenil competition, human α5β3γ2, read-out: hKi α5.

Each structure is given as a SMILES string. Read-outs that look alike come from different tables or passages of the source.

Regarding `Cc1ncn2c1Cn1nc(CN3CCCC3=O)nc1-c1cc(Br)ccc1-2` [Compound 8591, 3-Bromo-10-methyl-6-(2-oxo-pyrrolidin-1-ylmethyl)-9H-imidazo[1,5-a][1,2,4]triazolo[1,5-d][1,4]benzodiazepine], in experiment [1], the Ki was 669 nM and the “hKi α2/hKi α5” value came to 94. Also, the “Efficacy GABA A α2β3γ2” value in experiment [2] is given as −7%. This compound also showed a Ki in experiment [3] of 7.1 nM. Also, the “Efficacy GABA A α1β2/3γ2” value in experiment [4] is on record as “+4%”. In experiment [5], the Ki came to 624 nM and the “hKi α1/hKi α5” value is recorded as 88. The “Efficacy GABA A α3β3γ2” value in experiment [6] was “+23%”. In addition, in experiment [7], the Ki was 515 nM and the “hKi α3/hKi α5” value was 73. Also, in experiment [8], the “Efficacy GABA A α5β3γ2” value was −31%.

Consider `Cc1onc(-c2ccccc2)c1COc1ccc(C(=O)NC(C)C)cn1` [Compound O1, N-Isopropyl-6-(5-methyl-3-phenyl-isoxazol-4-ylmethoxy)-nicotinamide], for which, in experiment [1], the Ki turned out to be 101 nM and the “hKi α2/hKi α5” value stood at 77. The “Efficacy GABA A α2β3γ2” value in experiment [2] is recorded as −34%. The Ki in experiment [3] (setting [9]) was 1.3 nM. Moreover, in experiment [4], the “Efficacy GABA A α1β2/3γ2” value is on record as −19%. In experiment [5], the Ki was determined as 504 nM and the “hKi α1/hKi α5” value is 388. Also, the “Efficacy GABA A α3β3γ2” value in experiment [6] is −43%. Also, in experiment [7], the Ki was found to be 110 nM and the “hKi α3/hKi α5” value is 85. Also, the “Efficacy GABA A α5β3γ2” value in experiment [8] is −50%.

On to `Cc1onc(-c2ccccn2)c1COc1ccc(C(=O)N2CCOCC2)cn1` [Compound T1, [6-(5-Methyl-3-pyridin-2-yl-isoxazol-4-ylmethoxy)-pyridin-3-yl]-morpholin-4-yl-methanone], for which the Ki amounted to 293 nM in experiment [1], 14.6 nM in experiment [3] (setting [9]), 468 nM in experiment [5] and 387 nM in experiment [7]. In experiment [1], the “hKi α2/hKi α5” value was found to be 20. Also, the “Efficacy GABA A α2β3γ2” value in experiment [2] was “+5%”. Besides, the “Efficacy GABA A α1β2/3γ2” value in experiment [4] is reported as −3%. Moreover, in experiment [5], the “hKi α1/hKi α5” value amounted to 32. Moreover, the “Efficacy GABA A α3β3γ2” value in experiment [6] is “+9%”. The “hKi α3/hKi α5” value in experiment [7] is on record as 27. Moreover, the “Efficacy GABA A α5β3γ2” value in experiment [8] is reported as −31%.

These data come from patent publication US8835425B2, “Use of selective GABA A α5 negative allosteric modulators for the treatment of central nervous system conditions” (Hoffmann-La Roche Inc., priority 2010, dated 2014).
